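Dose response: 5 concentrations. Exposure: 48 h. Format: 96-well plates. Endpoint: linear interpolation; highest concentration if not reached. At the GI50, growth is halved. TGI is the concentration that stops growth completely.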 A value given as a limit tells only on which side of the number the result lay.

Test systems include DLD-1 colon; SNB-78 CNS; RXF-631 renal; HOP-18 NSCLC; M19-MEL melanoma; KM20L2 colon; XF 498 CNS; MDA-MB-435; MDA-N.
Experiment in all cases: inhibition of tumour cell growth, NCI panel, 48 h

For the compound `CN[C@@H](C)[C@H](NC)c1ccccc1`, the TGI in the assay on DLD-1 colon, in the assay on SNB-78 CNS, in the assay on RXF-631 renal, in the assay with HOP-18 NSCLC and in the assay on M19-MEL melanoma was more than 100 µM in each case.
On to `CCOC(=N)CC(=O)Nc1cccc(C)c1C`, for which the TGI in the assay with DLD-1 colon, in the assay with SNB-78 CNS, in the assay on KM20L2 colon, with RXF-631 renal, in the assay on XF 498 CNS and in the assay with M19-MEL melanoma was more than 100 µM in each case.
As to `O=c1[nH]c2cc(Cl)ccc2nc1/C(=N\O)C(O)c1ccc(Cl)cc1Cl` (stereo not given), the TGI with DLD-1 colon, in the assay with SNB-78 CNS, in the assay with KM20L2 colon, in the assay on RXF-631 renal, in the assay with XF 498 CNS and in the assay with M19-MEL melanoma was more than 100 µM in each case.
Turning to `COc1ccc(C2c3cc(OC)c(OC)cc3C(Cc3ccc([N+](=O)[O-])cc3)C2c2ccc([N+](=O)[O-])cc2)cc1OC` (stereo not given), the TGI in the assay on DLD-1 colon, with SNB-78 CNS, in the assay with KM20L2 colon, in the assay on RXF-631 renal, in the assay with XF 498 CNS and with M19-MEL melanoma was more than 100 µM each time.
For `CCCCCCCCCCCCCCCCCC(=O)O[C@H](COC(=O)CCCCCCCCCCC)COC(=O)CCCCCCCCCCCCCCC`, the TGI in the assay on DLD-1 colon, in the assay on KM20L2 colon, with RXF-631 renal, with HOP-18 NSCLC and in the assay with M19-MEL melanoma was more than 100 µM throughout.
In the case of `COc1cccc(-n2c3nc(=O)n(C)c(=O)c-3nc3ccccc32)c1`, the TGI with DLD-1 colon was 96.1 µM; in the assay on SNB-78 CNS, more than 100 µM; with KM20L2 colon, 62.6 µM; in the assay with RXF-631 renal, 76.7 µM; in the assay on HOP-18 NSCLC, more than 100 µM; with XF 498 CNS, 42.7 µM. This compound also displayed a TGI with M19-MEL melanoma of 6.1 µM.
On to `[Au+].[Au+].[Au+].[c-]1nccn1Cc1ccccc1.[c-]1nccn1Cc1ccccc1.[c-]1nccn1Cc1ccccc1`, for which the GI50 in the assay on DLD-1 colon was 1.96 µM; in the assay on SNB-78 CNS, 2.84 µM; in the assay on KM20L2 colon, 26.9 µM; in the assay with MDA-MB-435 it was 11.4 µM; in the assay on MDA-N it was 11.2 µM; with HOP-18 NSCLC it was 2.87 µM. Further, the GI50 in the assay on XF 498 CNS is 1.74 µM; in the assay with M19-MEL melanoma it was 2.01 µM. Moreover, the TGI with DLD-1 colon was 3.7 µM; with SNB-78 CNS, 8.63 µM; with KM20L2 colon it was more than 73 µM; in the assay with MDA-MB-435, 34.2 µM; in the assay on MDA-N, 26.6 µM; with HOP-18 NSCLC it was 8.77 µM. Besides, the TGI amounted to 3.13 µM in the assay on XF 498 CNS and 3.96 µM with M19-MEL melanoma.
Take `CC1(C)O/C(=C\c2ccccc2)C(=O)/C(=C/c2ccccc2)O1`: the TGI in the assay with DLD-1 colon was more than 100 µM; in the assay on SNB-78 CNS it was more than 100 µM; with RXF-631 renal, more than 100 µM; in the assay on HOP-18 NSCLC, more than 100 µM; in the assay with XF 498 CNS, 54.4 µM; with M19-MEL melanoma, more than 100 µM.
For `Cc1cc(C)c(C2[C@H]3C(=O)N(c4ccc(Cc5ccc(N6C(=O)[C@@H]7ON(c8ccccc8)C(c8c(C)cc(C)cc8C)[C@@H]7C6=O)cc5)cc4)C(=O)[C@H]3ON2c2ccccc2)c(C)c1` (stereo not given in full), the TGI in the assay with DLD-1 colon, in the assay with SNB-78 CNS, in the assay with KM20L2 colon, with RXF-631 renal, in the assay on HOP-18 NSCLC and in the assay on M19-MEL melanoma was more than 100 µM in each case.
On to `CC12CCCCC1(C)C2Sc1ccccc1` (stereo not given), for which the TGI with DLD-1 colon was more than 100 µM; in the assay with SNB-78 CNS it was more than 80.1 µM; with KM20L2 colon, more than 100 µM; in the assay with RXF-631 renal, more than 100 µM; in the assay with HOP-18 NSCLC, more than 100 µM; in the assay on XF 498 CNS, 66.3 µM. Further, the TGI with M19-MEL melanoma was more than 94.5 µM.
Turning to `C[n+]1cc(C(O)c2ccc3c(c2)OCO3)c2ccccc2c1` (stereo not given), the TGI with DLD-1 colon, in the assay with SNB-78 CNS, with KM20L2 colon, in the assay with RXF-631 renal and in the assay with M19-MEL melanoma was more than 100 µM in each case.
For `CCCCOC(=O)NC(=O)c1cn(CCCOC(=O)NCCCCCCNC(=O)OCCCn2cc(C(=O)NC(=O)OCCCC)c(=O)[nH]c2=O)c(=O)[nH]c1=O`, the TGI was more than 100 µM with DLD-1 colon; more than 100 µM with SNB-78 CNS; more than 100 µM in the assay on KM20L2 colon; more than 100 µM in the assay with RXF-631 renal; more than 100 µM in the assay with HOP-18 NSCLC; 93.1 µM in the assay with XF 498 CNS. In the assay with M19-MEL melanoma, this compound had a TGI of more than 100 µM.
As to `COc1cc(C)c2c(c1C)OC(=O)c1c(C)c(Cl)c(O)c(C=O)c1O2`, the TGI in the assay with DLD-1 colon was 59 µM; with SNB-78 CNS it was 50.6 µM; with KM20L2 colon, 69.5 µM; with RXF-631 renal, 57.1 µM; in the assay with XF 498 CNS, 49.5 µM.
Turning to `COC(=O)/C(C=O)=C/Sc1ccccc1`, the TGI with DLD-1 colon was 66 µM; in the assay with SNB-78 CNS, more than 100 µM; in the assay with KM20L2 colon, 94.7 µM; in the assay on RXF-631 renal, 45.7 µM; in the assay on HOP-18 NSCLC, more than 100 µM; with XF 498 CNS it was more than 100 µM. Besides, in the assay on M19-MEL melanoma, the TGI was 55.7 µM.
Consider `COc1cc2ccc3c4cc(OC)c(OC(C)C)cc4cnc3c2cc1OC`, for which the TGI with DLD-1 colon, in the assay with SNB-78 CNS, in the assay on KM20L2 colon, in the assay with RXF-631 renal, in the assay on HOP-18 NSCLC and with M19-MEL melanoma was more than 100 µM throughout.

Source of the values: PubChem BioAssay (NCI).
